Measurements published in article PMC10937199 (ESMO Open, 2024).

Assays:
[1] = Peposertib plasma pharmacokinetics, Part A; format: in vivo, human; settings: Parts A and B
[2] = tested on: patients with advanced solid tumors; assay: Safety; format: in vivo, human; settings: Part B

Structure (SMILES): COc1ccc([C@@H](O)c2cc(-c3ncnc4cc(N5CCOCC5)ccc34)c(F)cc2Cl)nn1 [Peposertib]
- Peposertib exposure versus dose ([1]; across all dose levels after single or multiple (q.d. and b.i.d.) doses): generally proportional to the dose
- Accumulation ([1]; after q.d. and b.i.d. dosing): Some accumulation was observed
- IRR ([2]; 100 mg q.d., all grade): 2 (66.7) n (%)
- Immune-related AE ([2]; 100 mg q.d., all grade): 0 n (%)
- Serious TEAE ([2]; 100 mg q.d., all grade): 2 (66.7) n (%)
- Serious TEAE, peposertib related ([2]; 100 mg q.d., all grade): 0 n (%)
- Serious TEAE, radiotherapy related ([2]; 100 mg q.d., all grade): 0 n (%)
- Serious TEAE, treatment related ([2]; 100 mg q.d., all grade): 1 (33.3) n (%)
- TEAE ([2]; 100 mg q.d., all grade): 3 (100.0) n (%)
- TEAE, peposertib related ([2]; 100 mg q.d., all grade): 2 (66.7) n (%)
- TEAE, radiotherapy related ([2]; 100 mg q.d., all grade): 1 (33.3) n (%)
- TEAE, treatment related ([2]; 100 mg q.d., all grade): 3 (100.0) n (%)
- TEAEs leading to death ([2]; 100 mg q.d., all grade): 0 n (%)
- Treatment-related AE leading to death ([2]; 100 mg q.d., all grade): 0 n (%)
- IRR ([2]; 100 mg q.d., grade ≥3): 0 n (%)
- Immune-related AE ([2]; 100 mg q.d., grade ≥3): 0 n (%)
- Serious TEAE ([2]; 100 mg q.d., grade ≥3): 2 (66.7) n (%)
- Serious TEAE, peposertib related ([2]; 100 mg q.d., grade ≥3): 0 n (%)
- Serious TEAE, radiotherapy related ([2]; 100 mg q.d., grade ≥3): 0 n (%)
- Serious TEAE, treatment related ([2]; 100 mg q.d., grade ≥3): 1 (33.3) n (%)
- TEAE ([2]; 100 mg q.d., grade ≥3): 2 (66.7) n (%)
- TEAE, peposertib related ([2]; 100 mg q.d., grade ≥3): 0 n (%)
- TEAE, radiotherapy related ([2]; 100 mg q.d., grade ≥3): 0 n (%)
- TEAE, treatment related ([2]; 100 mg q.d., grade ≥3): 1 (33.3) n (%)
- TEAEs leading to death ([2]; 100 mg q.d., grade ≥3): 0 n (%)
- Treatment-related AE leading to death ([2]; 100 mg q.d., grade ≥3): 0 n (%)
- IRR ([2]; 150 mg q.d., all grade): 1 (33.3) n (%)
- Immune-related AE ([2]; 150 mg q.d., all grade): 0 n (%)
- Serious TEAE ([2]; 150 mg q.d., all grade): 1 (33.3) n (%)
- Serious TEAE, peposertib related ([2]; 150 mg q.d., all grade): 0 n (%)
- Serious TEAE, radiotherapy related ([2]; 150 mg q.d., all grade): 0 n (%)
- Serious TEAE, treatment related ([2]; 150 mg q.d., all grade): 1 (33.3) n (%)
- TEAE ([2]; 150 mg q.d., all grade): 3 (100.0) n (%)
- TEAE, peposertib related ([2]; 150 mg q.d., all grade): 1 (33.3) n (%)
- TEAE, radiotherapy related ([2]; 150 mg q.d., all grade): 1 (33.3) n (%)
- TEAE, treatment related ([2]; 150 mg q.d., all grade): 3 (100.0) n (%)
- TEAEs leading to death ([2]; 150 mg q.d., all grade): 0 n (%)
- Treatment-related AE leading to death ([2]; 150 mg q.d., all grade): 0 n (%)
- IRR ([2]; 150 mg q.d., grade ≥3): 0 n (%)
- Immune-related AE ([2]; 150 mg q.d., grade ≥3): 0 n (%)
- Serious TEAE ([2]; 150 mg q.d., grade ≥3): 1 (33.3) n (%)
- Serious TEAE, peposertib related ([2]; 150 mg q.d., grade ≥3): 0 n (%)
- Serious TEAE, radiotherapy related ([2]; 150 mg q.d., grade ≥3): 0 n (%)
- Serious TEAE, treatment related ([2]; 150 mg q.d., grade ≥3): 1 (33.3) n (%)
- TEAE ([2]; 150 mg q.d., grade ≥3): 2 (66.7) n (%)
- TEAE, peposertib related ([2]; 150 mg q.d., grade ≥3): 1 (33.3) n (%)
- TEAE, radiotherapy related ([2]; 150 mg q.d., grade ≥3): 1 (33.3) n (%)
- TEAE, treatment related ([2]; 150 mg q.d., grade ≥3): 2 (66.7) n (%)
- TEAEs leading to death ([2]; 150 mg q.d., grade ≥3): 0 n (%)
- Treatment-related AE leading to death ([2]; 150 mg q.d., grade ≥3): 0 n (%)
- IRR ([2]; 200 mg q.d., all grade): 2 (50.0) n (%)
- Immune-related AE ([2]; 200 mg q.d., all grade): 1 (25.0) n (%)
- Serious TEAE ([2]; 200 mg q.d., all grade): 1 (25.0) n (%)
- Serious TEAE, peposertib related ([2]; 200 mg q.d., all grade): 0 n (%)
- Serious TEAE, radiotherapy related ([2]; 200 mg q.d., all grade): 0 n (%)
- Serious TEAE, treatment related ([2]; 200 mg q.d., all grade): 0 n (%)
- TEAE ([2]; 200 mg q.d., all grade): 4 (100.0) n (%)
- TEAE, peposertib related ([2]; 200 mg q.d., all grade): 2 (50.0) n (%)
- TEAE, radiotherapy related ([2]; 200 mg q.d., all grade): 3 (75.0) n (%)
- TEAE, treatment related ([2]; 200 mg q.d., all grade): 4 (100.0) n (%)
- TEAEs leading to death ([2]; 200 mg q.d., all grade): 0 n (%)
- Treatment-related AE leading to death ([2]; 200 mg q.d., all grade): 0 n (%)
- IRR ([2]; 200 mg q.d., grade ≥3): 0 n (%)
- Immune-related AE ([2]; 200 mg q.d., grade ≥3): 0 n (%)
- Serious TEAE ([2]; 200 mg q.d., grade ≥3): 1 (25.0) n (%)
- Serious TEAE, peposertib related ([2]; 200 mg q.d., grade ≥3): 0 n (%)
- Serious TEAE, radiotherapy related ([2]; 200 mg q.d., grade ≥3): 0 n (%)
- Serious TEAE, treatment related ([2]; 200 mg q.d., grade ≥3): 0 n (%)
- TEAE ([2]; 200 mg q.d., grade ≥3): 1 (25.0) n (%)
- TEAE, peposertib related ([2]; 200 mg q.d., grade ≥3): 0 n (%)
- TEAE, radiotherapy related ([2]; 200 mg q.d., grade ≥3): 0 n (%)
- TEAE, treatment related ([2]; 200 mg q.d., grade ≥3): 0 n (%)
- TEAEs leading to death ([2]; 200 mg q.d., grade ≥3): 0 n (%)
- Treatment-related AE leading to death ([2]; 200 mg q.d., grade ≥3): 0 n (%)
- Peposertib-related pneumonitis ([2]; 250 mg q.d.): 11.1%
- Serious TEAE: dehydration ([2]; 250 mg q.d.): 2/9
- IRR ([2]; 250 mg q.d., all grade): 3 (33.3) n (%)
- Immune-related AE ([2]; 250 mg q.d., all grade): 2 (22.2) n (%)
- Serious TEAE ([2]; 250 mg q.d., all grade): 6 (66.7) n (%)
